Measurements published in PubChem BioAssay AID1117337 (Cheminformatics & Chemogenomics Research Group (CCRG), …, 2015).
“And” between values parts separate entries of the source, which are not always exact repeats. Equal values may be shown once. The source made the active and inactive calls. No rule for the calls is given here. Where a SMILES comes first, the peptide text is derived from it.

tested on: ADSC/ECFC co-culture, VEGF-stimulated, CD31 tube area; test: inhibition of endothelial tube formation, dose response, imaging, VEGF stimulation, CD31 staining, tube area, IC50 (AID 1117337)

| SMILES | IC50 |
| --- | --- |
| CC(=O)Oc1cccc2c1C(=O)c1c(OC(C)=O)cc(C(=O)O)cc1C2=O | > 10 µM (inactive) |
| COC(=O)Nc1nc2ccc(Sc3ccccc3)cc2[nH]1 | 0.207 µM |
| Oc1ccc(Cl)cc1Cc1cc(Cl)ccc1O | 2.32 µM |
| O=C1C2CC=CCC2C(=O)N1SC(Cl)(Cl)Cl (stereo not drawn) | > 10 µM (inactive) |
| CCOC(=O)C1=C(C)NC(C)=C(C(=O)OCC)C1c1ccccc1/C=C/C(=O)OC(C)(C)C | > 10 µM (inactive) |
| CC[C@]12CCCN3CCc4c(n(c5ccccc45)C(=O)C1)[C@@H]32 | > 10 µM (inactive) |
| COCC(=O)O[C@]1(CCN(C)CCCc2nc3ccccc3[nH]2)CCc2cc(F)ccc2[C@@H]1C(C)C | > 10 µM (inactive) |
| O=C1NC2CCCCN2C12CCN(CCCN1c3ccccc3CCc3ccc(Cl)cc31)CC2 (stereo not drawn) | > 10 µM (inactive) |
| Oc1ccc(Cl)cc1Sc1cc(Cl)ccc1O | 3.53 µM |
| CCCCCCC[N+](CC)(CC)CCCCc1ccc(Cl)cc1 | 6.34 µM (inactive) |
| CCCCCCCCCCCCCC[N+](C)(C)Cc1ccccc1 | 3.01 µM |
| COCC(C)N(C(=O)CCl)c1c(C)csc1C (stereo not drawn) | > 10 µM (inactive) |
| CNC(=O)Oc1cccc2ccccc12 | > 10 µM (inactive) |
| CC(=O)N(CC(O)CN(C(C)=O)c1c(I)c(C(=O)NCC(O)CO)c(I)c(C(=O)NCC(O)CO)c1I)c1c(I)c(C(=O)NCC(O)CO)c(I)c(C(=O)NCC(O)CO)c1I (stereo not drawn) | > 10 µM (inactive) |
| CC(C)=CCCC(C)=CCCC(C)=CCCC=C(C)CCC=C(C)CCC=C(C)C | > 10 µM (inactive) |
| CCC1C(=O)OCC1Cc1cncn1C (stereo not drawn) | > 10 µM (inactive) |
| CN1CCN(CCCN2c3ccccc3Sc3ccc(S(=O)(=O)N(C)C)cc32)CC1 | > 10 µM (inactive) |
| C[C@H]1O[C@@H](O[C@H]2CC[C@@]3(C)[C@H](CC[C@@H]4[C@@H]3C[C@@H](O)[C@]3(C)[C@@H](C5=CC(=O)OC5)CC[C@]43O)C2)C[C@H](O)[C@@H]1O[C@H]1C[C@H](O)[C@H](O[C@H]2C[C@H](O)[C@H](O[C@@H]3O[C@H](CO)[C@@H](O)[C@H](O)[C@H]3O)[C@@H](C)O2)[C@@H](C)O1 | 0.0614 µM |
| CCCCCCCC(=O)OCC(COC(=O)CCCCCCC)OC(=O)CCCCCCC | > 10 µM (inactive) |
| Cc1nc2ccccc2n1Cc1ccc(Cl)cc1 | 7.38 µM (inactive) |
| Nc1c2ccccc2nc2ccccc12 | > 10 µM (inactive) |
| CCOc1ccc2nc3cc(N)ccc3c(N)c2c1 | 4.94 µM |
| O=c1[nH]c(=O)n([C@H]2C[C@H](O)[C@@H](CO)O2)cc1I | 0.681 µM |
| CC12CCC(CC1)C(C)(C)O2 | > 10 µM (inactive) |

| SMILES | IC50 |
| --- | --- |
| CC(=O)N(O)CCCCCNC(=O)CCC(=O)N(O)CCCCCNC(=O)CCC(=O)N(O)CCCCCN | 4.53 µM |
| OCCN1CCN(CCCN2c3ccccc3Sc3ccc(Cl)cc32)CC1 | > 10 µM (inactive) |
| C[S+](CC[C@H](N)C(=O)O)C[C@H]1O[C@@H](n2cnc3c(N)ncnc32)[C@H](O)[C@H]1O (stereo partly drawn) | > 10 µM (inactive) |
| CCc1oc2ccccc2c1C(=O)c1cc(I)c(O)c(I)c1 | 5.85 µM (inactive) |
| CCOC(=O)[C@H](CCc1ccccc1)N[C@@H](C)C(=O)N1Cc2cc(OC)c(OC)cc2C[C@H]1C(=O)O | > 10 µM (inactive) |
| Cc1cc(C(C#N)c2ccc(Cl)cc2)c(Cl)cc1NC(=O)c1cc(I)cc(I)c1O (stereo not drawn) | > 10 µM (inactive) |
| COc1cc(-c2ccc(=O)[nH]n2)ccc1OC(F)F | 1.22 µM |
| COC(=O)C1=C(C)NC(C)=C(C(=O)O[C@@H]2CCCN(Cc3ccccc3)C2)[C@@H]1c1cccc([N+](=O)[O-])c1 | > 10 µM (inactive) |
| COc1cc(S(N)(=O)=O)cc(C(=O)O)c1OC | > 10 µM (inactive) |
| CCN(CC)C(=O)/C(C#N)=C/c1cc(O)c(O)c([N+](=O)[O-])c1 | > 10 µM (inactive) |
| COc1cc2nc(N3CCN(C(=O)C4COc5ccccc5O4)CC3)nc(N)c2cc1OC (stereo not drawn) | > 10 µM (inactive) |
| O=[N+]([O-])c1cccc(S(=O)(=O)NCCNS(=O)(=O)c2cccc([N+](=O)[O-])c2)c1 | > 10 µM (inactive) |
| C=CCCCCCCCCC(=O)OC | > 10 µM (inactive) |
| CN1CCCC(CC2c3ccccc3Sc3ccccc32)C1 (stereo not drawn) | 8.68 µM (inactive) |
| c1ccc2c(c1)Sc1ccccc1N2CC1CN2CCC1CC2 (stereo not drawn) | 9.44 µM (inactive) |
| O=C(CCCN1CCC(O)(c2cccc(C(F)(F)F)c2)CC1)c1ccc(F)cc1 | > 10 µM (inactive) |
| O=[N+]([O-])c1ccc(Oc2ccc(N=C=S)cc2)cc1 | 3.72 µM |
| O=c1[nH]c(=O)n([C@H]2C[C@H](O)[C@@H](CO)O2)cc1Br | 3.85 µM |
| Cc1ccc(C(=O)Oc2ccc(C(O)CNC(C)(C)C)cc2OC(=O)c2ccc(C)cc2)cc1 (stereo not drawn) | > 10 µM (inactive) |
| Oc1cc(Cl)ccc1Oc1ccc(Cl)cc1Cl | > 10 µM (inactive) |
| COc1ccc2c(c1)c1c3n2CCN(C)C3=NCC1 | > 10 µM (inactive) |
| Clc1cc(Cl)c(OCC#CI)cc1Cl | > 10 µM (inactive) |
| NC(=O)[C@@H]1CSSCCC(=O)N[C@@H](CCCCN=C(N)N)C(=O)NCC(=O)N[C@@H](CC(=O)O)C(=O)N[C@@H](Cc2c[nH]c3ccccc23)C(=O)N2CCC[C@H]2C(=O)N1 (HELM PEPTIDE1{[O=C(CCS[*:3])[*:2]].[N=C(N)NCCCC[C@H](N[*:1])C(=O)[*:2]].G.D.W.P.C.[am]}$PEPTIDE1,PEPTIDE1,1:R3-7:R3$$$V2.0) | > 10 µM (inactive) |
| CCCCCCCCCCCCCCCCCC[N+](C)(C)CCC[Si](OC)(OC)OC | > 10 µM (inactive) |

| SMILES | IC50 |
| --- | --- |
| CCCCCCCCCCCCCCCC(=O)OCC=C(C)C=CC=C(C)C=CC1=C(C)CCCC1(C)C | > 10 µM (inactive) |
| CC(C)=CCOc1ccc(/C=C/C(=O)c2ccc(OCC=C(C)C)cc2OCC(=O)O)cc1 | > 10 µM (inactive) |
| C[n+]1cc2c3c(ccc2c2ccc4cc5c(cc4c21)OCO5)OCO3 | 0.537 µM |
| O=C1C(I)=CC(=C(c2cc(I)c(O)c(I)c2)c2ccccc2C(=O)O)C=C1I | > 10 µM (inactive) |
| O=C(CBr)Nc1ccc(Cl)cc1C(=O)c1ccccc1F | > 10 µM (inactive) |
| Clc1ccc(CCC(Cn2ccnc2)Sc2c(Cl)cccc2Cl)cc1 (stereo not drawn) | 3.53 µM |
| CC(=O)[O][Hg][c]1ccccc1 | 0.53 µM |
| CC[N+](CC)(CC)CCOc1ccc(/C=C/c2ccccc2)cc1 | > 10 µM (inactive) |
| CC(=O)Oc1ccccc1C(=O)Nc1ncc([N+](=O)[O-])s1 | 2.06 µM |
| CCc1cccc(N(C)C(N)=Nc2cccc3ccccc23)c1 | > 10 µM (inactive) |
| Cc1c(O)cccc1C(=O)N[C@@H](CSc1ccccc1)[C@H](O)CN1C[C@H]2CCCC[C@H]2C[C@H]1C(=O)NC(C)(C)C | > 10 µM (inactive) |
| OCCN1CCN(CCCN2c3ccccc3Sc3ccc(C(F)(F)F)cc32)CC1 | > 10 µM (inactive) |
| Cc1nc2ccc(CN(C)c3ccc(C(=O)N[C@@H](CCC(=O)O)C(=O)O)s3)cc2c(=O)[nH]1 | 0.354 µM |
| O=C(NOCC1CC1)c1ccc(F)c(F)c1Nc1ccc(I)cc1Cl | 0.368 µM |
| CCCCCCCCCCCCCCCC[N+](C)(C)Cc1ccccc1 | 2.53 µM |
| O=C1c2c(O)cccc2Cc2cccc(O)c21 | 0.604 µM |
| Oc1ccc2[nH]cc(CCCCN3CC=C(c4ccccc4)CC3)c2c1 | 4.04 µM |
| CCOC(=O)NC(C)(C)Cc1ccc(Cl)cc1 | > 10 µM (inactive) |
| CN1CC[C@H](c2c(O)cc(O)c3c(=O)cc(-c4ccccc4Cl)oc23)[C@H](O)C1 | 0.114 µM |
| OC[C@H]1O[C@@H](n2cnc3c(=S)nc[nH]c32)[C@H](O)[C@@H]1O | 1.42 µM |
| CCOC(=O)C1=C[C@]2(CC)CCCN3CCc4c(n1c1ccccc41)[C@@H]32 | > 10 µM (inactive) |
| CC1CCC(C(C)C)C(OC(=O)c2ccccc2O)C1 (stereo not drawn) | > 10 µM (inactive) |
| CCCCCCCCCCCCCCCCCCOP(=O)([O-])OC1CC[N+](C)(C)CC1 | > 10 µM (inactive) |
| Cc1c(C(=O)NN2CCCCC2)nn(-c2ccc(Cl)cc2Cl)c1-c1ccc(Cl)cc1 | > 10 µM (inactive) |

| SMILES | IC50 |
| --- | --- |
| Cc1c(C)c2c(c(C)c1OC(=O)CCC(=O)O)CC[C@@](C)(CCC[C@H](C)CCC[C@H](C)CCCC(C)C)O2 | > 10 µM (inactive) |
| Cc1cc(C2CCCCC2)n(O)c(=O)c1 | > 10 µM (inactive) |
| Oc1c(Cl)cc(Cl)cc1Sc1cc(Cl)cc(Cl)c1O | 1.79 µM |
| NC(=O)c1cccnc1 | > 10 µM (inactive) |
| CC[C@]1(O)C[C@@H]2CN(CCc3c([nH]c4ccccc34)[C@@](C(=O)OC)(c3cc4c(cc3OC)N(C)[C@H]3[C@@](O)(C(=O)OC)[C@H](OC(C)=O)[C@]5(CC)C=CCN6CC[C@]43[C@@H]65)C2)C1 | 0.0026 µM and 0.0023 µM |
| CCCCCCCCCCC[C@@H](C[C@@H]1OC(=O)[C@H]1CCCCCC)OC(=O)[C@H](CC(C)C)NC=O | > 10 µM (inactive) |
| C[C@@H]1C[C@H]2[C@@H]3CCC4=CC(=O)C=C[C@]4(C)[C@@]3(Cl)[C@@H](O)C[C@]2(C)[C@@]1(OC(=O)c1ccco1)C(=O)CCl | 4.99 µM |
| O=C1OC(OC(=O)c2cccnc2Nc2cccc(C(F)(F)F)c2)c2ccccc21 (stereo not drawn) | > 10 µM (inactive) |
| Cc1cc(OI)c(C(C)C)cc1-c1cc(C(C)C)c(OI)cc1C | > 10 µM (inactive) |
| CC1=C(/C=C/C(C)=C/C=C/C(C)=C/C(=O)Nc2ccc(O)cc2)C(C)(C)CCC1 | 1.34 µM |
| CCCCCCCCCCOCC(O)CN (stereo not drawn) | 6.55 µM (inactive) |
| COc1cccc(CCc2ccccc2OCC(CN(C)C)OC(=O)CCC(=O)O)c1 (stereo not drawn) | > 10 µM (inactive) |
| O=C(Nc1ccc([N+](=O)[O-])cc1)Nc1ccc([N+](=O)[O-])cc1 | > 10 µM (inactive) |
| CN(C)/N=N/c1nc[nH]c1C(N)=O | 4.59 µM |
| CCOP(=S)(OCC)SCSc1ccc(Cl)cc1 | > 10 µM (inactive) |
| COc1ccccc1N1CCN(CC(O)COc2cc(OC)c(OC)c(OC)c2)CC1 (stereo not drawn) | > 10 µM (inactive) |
| NC(=NCCCCCCN=C(N)/N=C(\N)Nc1ccc(Cl)cc1)/N=C(\N)Nc1ccc(Cl)cc1 | 1.35 µM |
| Cc1cc(N)c2ccccc2[n+]1CCCCCCCCCC[n+]1c(C)cc(N)c2ccccc21 | > 10 µM (inactive) |
| Cc1c(O)cc2c(c1C)O[C@](C)(CCC[C@H](C)CCC[C@H](C)CCCC(C)C)CC2 | > 10 µM (inactive) |
| CCN[C@@H](C)Cc1cccc(C(F)(F)F)c1 | > 10 µM (inactive) |
| Cc1ccc(Nc2nccc(N(C)c3ccc4c(C)n(C)nc4c3)n2)cc1S(N)(=O)=O | 0.0465 µM |
